Reference: patent US5534497A, “Technetium chelates to be used for determining the renal function” (Mallinckrodt Medical, Inc., priority 1986, dated 1996)

Legend:
[1] = Biodistribution in mice by organ uptake measurements, relative to Tc99m-MAG3 (iodo-131-Hippuran as reference standard); assay type: in vivo; conditions: for Blood: ratio of uptake of compound to uptake of Tc99m-MAG3 / Hepatic (system): ratio of uptake of compound to uptake of Tc99m-MAG3 / Intestines: ratio of uptake of compound to uptake of Tc99m-MAG3 / Kidneys: ratio of uptake of compound to uptake of Tc99m-MAG3 / Liver: ratio of uptake of compound to uptake of Tc99m-MAG3 / Remainder / Rest of the body: ratio of uptake of compound to uptake of Tc99m-MAG3 / Renal (system): ratio of uptake of compound to uptake of Tc99m-MAG3 / Stomach: ratio of uptake of compound to uptake of Tc99m-MAG3 / Urine: ratio of uptake of compound to uptake of Tc99m-MAG3: intravenous, 10 minutes after administration, each normalised to iodo-131-Hippuran; for Secretion characteristics / organ distribution compared with Tc99m-MAG3 (in words): secretion in urine, retention in kidneys, liver, intestines
Protocol: Tc99m-MAGAG-DA, separated by HPLC, is diluted with physiological saline solution to a concentration of 370 kilobecquerel per mi. Iodo-131-Hippuran is added to this solution as a reference standard. An amount of 0.1 ml of this mixture is injected intravenously into each of the eight mice, so that 37 kilobecquerel of Tc99m-MAGAG-DA and 18.5 kilobecquerel of iodo-131-Hippuran are injected per animal. Measures are taken to collect all the excreted urine. 10 Minutes after the administration the mice are sacrificed. It is ensured that all the blood is collected. All parts of the body are brought in separate tubes and the activity of Tc99m and I131 is determined for each part of the body. From the measured results the relative quantity of both tracer products in urine, kidneys, intestines. liver, blood and the collective remainder of the body is computed. In the same manner, Tc99m-MAGA-DB, separated by HPLC, and Tc99m-mercaptoacetylglycylglycylglycine (Tc99m-MAG3), purified by HPLC, both with iodo-131-Hippuran as a reference standard, are tested in two other groups of 8 and 6 mice, respectively. For all three Tc99m-labelled compounds -- MAGAG-DA, MAGAG-DB and MAG3 -- the relative percentages of Tc99m activity in the various organs are calculated with respect to iodo-131-Hippuran. After this, the ratios of Tc99m-MAGAG-DA and -DB can be calculated with respect to Tc99m-MAG3 in the various organs.
In the same ray as described in Example III the biodistribution of the above compound in mice is determined relative to that of Tc99m-MAG3 by organ uptake measurements.
In the same way as described in Example III the biodistribution of the above compound in mice is determined relative to that of Tc99m-MAG3 by organ uptake measurements.

[2] = background statement; cited from earlier work
[3] = glomerular filtration about 125 ml per minute, total renal clearance 600 to 700 ml per minute; cited from earlier work

With “Tc99m-mercaptoacetylglycyl-D-alanylglycine [Tc99m-MAGAG-DA]” the “Blood: ratio of uptake of compound to uptake of Tc99m-MAG3” value (shortened to “Blood: ratio of uptake of compound”) [1] was 1.12, the “Hepatic (system): ratio of uptake of compound to uptake of Tc99m-MAG3” value (“Hepatic (system): ratio” below) [1] was 0.60 and the “Intestines: ratio of uptake of compound to uptake of Tc99m-MAG3” value (shortened to “Intestines: ratio of uptake of compound”) [1] was 0.44. The “Kidneys: ratio of uptake of compound to uptake of Tc99m-MAG3” value (“Kidneys: ratio of uptake of compound” for short) [1] was 0.36, the “Liver: ratio of uptake of compound to uptake of Tc99m-MAG3” value (“Liver: ratio of uptake of compound” for short) [1] was 0.68 and the “Remainder / Rest of the body: ratio of uptake of compound to uptake of Tc99m-MAG3” value [1] was 0.90. The “Renal (system): ratio of uptake of compound to uptake of Tc99m-MAG3” value (shortened to “Renal (system): ratio”) [1] was 1.05, the “Stomach: ratio of uptake of compound to uptake of Tc99m-MAG3” value (shortened to “Stomach: ratio of uptake of compound”) [1] was 0.83 and the “Urine: ratio of uptake of compound to uptake of Tc99m-MAG3” value (from here on “Urine: ratio of uptake of compound”) [1] was 1.13. The “Secretion characteristics / organ distribution compared with Tc99m-MAG3 (in words)” value [1] was “significantly better than those of Tc99m-MAG3”.

With “Tc99m-mercaptoacetylglycyl-D-alanylglycine [Tc99m-MAGAG-DB]” the “Blood: ratio of uptake of compound” value [1] was 1.20, the “Hepatic (system): ratio” value [1] was 0.59 and the “Intestines: ratio of uptake of compound” value [1] was 0.41. The “Kidneys: ratio of uptake of compound” value [1] was 0.37, the “Liver: ratio of uptake of compound” value [1] was 0.68 and the “Remainder / Rest of the body: ratio of uptake of compound to uptake of Tc99m-MAG3” value [1] was 0.94. The “Renal (system): ratio” value [1] was 1.07, the “Stomach: ratio of uptake of compound” value [1] was 0.85 and the “Urine: ratio of uptake of compound” value [1] was 1.14. For the same compound, the “Secretion characteristics / organ distribution compared with Tc99m-MAG3 (in words)” value [1] was “significantly better than those of Tc99m-MAG3”.

With “Tc99m-mercaptoacetyl-D-alanylglycylglycine [Tc99m-MAAG2-DB]” the “Blood: ratio of uptake of compound” value [1] was 1.17, the “Hepatic (system): ratio” value [1] was 0.84 and the “Intestines: ratio of uptake of compound” value [1] was 0.95. The “Kidneys: ratio of uptake of compound” value [1] was 0.66, the “Liver: ratio of uptake of compound” value [1] was 0.79 and the “Remainder / Rest of the body: ratio of uptake of compound to uptake of Tc99m-MAG3” value [1] was 1.45. The “Renal (system): ratio” value [1] was 0.96, the “Stomach: ratio of uptake of compound” value [1] was 1.40 and the “Urine: ratio of uptake of compound” value [1] was 0.99. The “Secretion characteristics / organ distribution compared with Tc99m-MAG3 (in words)” value [1] was “more favourable organ distribution than Tc99m-MAG3”.

For “Tc99m-mercaptoacetylglycylglycylglycine [Tc99m-MAG3]”, the “Secretion by the kidneys (in words)” value [2] is listed as “secreted by the kidneys selectively and slightly faster than iodo-Hippuran”.

In the case of `O=C([O-])CNC(=O)c1ccccc1[131I].[Na+]` [iodo-131-Hippuran], the “Secretion by the kidneys (in words)” value [2] is listed as “secreted actively tubularly”.

In the case of `O=C([O-])CN(CCN(CC(=O)[O-])CC(=O)[O-])CCN(CC(=O)[O-])CC(=O)[O-].[99Tc+4]` [chelate of DTPA, Tc99m-diethylene triamine pentascetic acid], the clearance [3] is given as 100 ml of blood plasma per minute.
